Results: patent US9243247B2, “Composition for promoting apoptosis or inhibiting cell growth, comprising epstein-barr virus microrna” (Catholic University Industry Academic Cooperation Foundation, priority 2011, dated 2016)

What was measured:
Format in all cases: cell-based
AGS cell strain [1] = test: Measurement of apoptosis (Annexin V staining, FACS); details: for Relative Apoptotic cell: AGS, mimic 10 nM, 10 uM 5-FU 24 h after transfection, then 48 hours, Annexin V, relative to scrambled control (=1), n=9; for effect on cell growth and apoptosis (summary statement): mimics transfected to AGS, tumor cell strain not infected with EBV
Experimental: Immediately after the AGS cell strain, which is an EBV-negative cell strain, was divided was divided into a 6-well plate such that 2×10^5 AGS cells were allocated to each well, a synthesized miRNA (10 nM) was transfected by using G-fectin and the resulting mixture was cultured at 37 t in an incubatorTwenty four hours after the transfection, 10 uM of 5-FU was treated and the resulting mixture was cultured in an incubator at 37° C. for 48 hours. The cells were detached by using Trypsin-EDTA and washed with PBS two times. Afterwards, the cells were treated with a PE Annexin V Apoptosis Detection Kit and the changed ratio of apoptotic cell was investigated by FACS (FIG. 7).
Immediately after the AGS cell strain, which is an EBV-negative cell strain, is divided into a 6-well plate such that 2×10^5 AGS cells were allocated to each well, a synthesized miRNA (10 nM) was transfected by using G-fectin and the resulting mixture was cultured at 37° C. Twenty four hours after the transfection, 10 uM of 5-FU, which is an anti-cancer agent, was treated and the resulting mixture was cultured in an incubator at 37° C. for 48 hours. The cells were detached by using Trypsin-EDTA and washed with PBS two times. Afterwards, the cells were treated with a PE Annexin V Apoptosis Detection Kit and the ratio of cells where apoptosis took place was measured by FACS.

AGS cell strain [2] = test: Effect on cell cycle (propidium iodide staining, FACS, sub G1); details: mimic 10 nM, 10 uM 5-FU 24 h after transfection, then 48 hours, relative to scrambled control (=1)
Experimental: The AGS cells were divided into a 96-well plate such that 2×10^5 AGS cells were allocated to each well, and synthesized miRNAs (10 nM) were transfected and cultured at 37° C. in an incubator. Twenty four hours after the transfection, 10 uM of 5-FU, which is an anti-cancer agent, was treated in one case or not treated in another case, and then the resulting mixture was cultured in an incubator at 37° C. for 48 hours. The cells were detached by using Trypsin-EDTA and washed with PBS two times.
Immediately after the AGS cell strains, which are EBV-negative cell strains, were divided into a 6-well plate such that 2×10^5 AGS cells were allocated to each well, a synthesized miRNA (10 nM) was transfected by using G-fectin and cultured at 37° C. in an incubator. Twenty four hours after the transfection, 10 uM of 5-FU was treated and the resulting mixture was cultured at 37° C. in an incubator for 48 hours. The cells were detached by using Trypsin-EDTA and washed with PBS two times. Afterwards, DNA was stained by propidium iodide staining and the ratio of cells where cell cycle was changed was investigated by FACS.

AGS cell strain [3] = test: Cell growth test (CCK-8 assay) after transfection of BART miRNA mimics; details: 72 hours after transfection; for Relative Cell Growth: mimic 10 nM, relative to scrambled control (=1)
Experimental: An AGS cell strain (Korean Cell Line Bank), which is a stomach cancer cell strain, was cultured in an RPMI1640 (Gibco) culture medium including 10% fetal bovine serum. Mature type synthesized BART miRNAs were transfected to the AGS cell strain by using G-fectin (Genolution) according to a protocol of the manufacture.
To investigate the effect of individual EBV BART miRNAs on the AGS cell strain, the synthesized miRNAs were transfected to the AGS cell strain and, after 72 hours, cells were counted by CCK-8 assay.
Immediately after the AGS cell strain, which is an EBV-negative cell strain, was divided into 96-well plate having 1×10^3 cells/well, a synthesized miRNA (10 nM) was transfected by using G-fectin. After the transfection, according to the experimental objective, the cells were cultured at 37° C. in an incubator, and then CCK-8 was divided among the wells by allocating 10 μl of CCK-8 to each well and the resulting mixture was cultured in an incubator at 37° C. for two hours. Then, the light absorbance was measured with an ELISA measuring instrument.
By the method described in Example 3, miR-BART5-5p mimic or miR-BART15-3p mimic (10 nM) were transfected to the AGS cell strain, and the effect thereof on cell growth was investigated over time.
miR-BART5-5p, miR-BART15-3p, and miR-BART20-3p were transfected to the AGS cell strain (1×10^3 cells/well) in a concentration of 1, 3, 10, and 30 nM, and the effect on cell growth was investigated. Immediately after the AGS cell strain was divided into a 96-well plate such that 1×10^3 AGS cells were allocated to each well, a synthesized miRNA was transfected by using G-fectin. Seventy two hours after the transfection, CCK-8 was divided among the wells by allocating 10 μl of CCK-8 to each well, and the resulting mixture was cultured at 37° C. in an incubator for two hours.

Substance | Relative Apoptotic cell (AGS cell strain [1]) | Relative Apoptotic cell (AGS cell strain [1]; listed as 20-3p) | effect on cell growth and apoptosis (summary statement) (AGS cell strain [1]) | Relative Sub G1 (AGS cell strain [2]) | Relative Sub G1 (AGS cell strain [2]; listed as 20-3p) | cell growth (AGS cell strain [3]; 30 nM) | cell growth depending on mimic concentration (onset of inhibition) (AGS cell strain [3]; 1, 3, 10 and 30 nM) | Relative Cell Growth (AGS cell strain [3]; n=9) | Relative Cell Growth (AGS cell strain [3]; n=9, listed as miR-BART20-3p) | Relative Apoptotic cell (AGS cell strain [1]; listed as 21-3p) | Relative Apoptotic cell (AGS cell strain [1]; listed as 13-3p) | Relative Apoptotic cell (AGS cell strain [1]; listed as 16-3p) | Relative Sub G1 (AGS cell strain [2]; listed as 12-3p)
BART20-3p: EBV BART miRNA mimic, double stranded RNA; sense SEQ NO: 75, antisense SEQ NO: 76 (sense CAUGAAGGCACAGCCUGUUACC; antisense GGUAACAGGCUGUGCCUUCAUG; chemistry not given here) | 1.416 | significantly higher | inhibit cell growth and promote apoptosis | 1.618 | increased | almost no cell growth | decreased cell growth, beginning at 10 nm | 0.8577 | inhibited cell growth | – | – | – | –
BART21-3p: EBV BART miRNA mimic, double stranded RNA; sense SEQ NO: 35, antisense SEQ NO: 36 (sense CUAGUUGUGCCCACUGGUGUUU; antisense AAACACCAGUGGGCACAACUAG; chemistry not given here) | 1.155 | – | inhibit cell growth and promote apoptosis | 0.965 | – | – | – | 1.215 | – | significantly higher | – | – | –
BART6-5p: EBV BART miRNA mimic, double stranded RNA; sense SEQ NO: 29, antisense SEQ NO: 30 (sense UAAGGUUGGUCCAAUCCAUAGG; antisense CCUAUGGAUUGGACCAACCUUA; chemistry not given here) | 1.117 | – | – | 1.023 | – | – | – | 0.881 | – | – | – | – | –
BART13-3p: EBV BART miRNA mimic, double stranded RNA; sense SEQ NO: 79, antisense SEQ NO: 80 (sense UGUAACUUGCCAGGGACGGCUGA; antisense UCAGCCGUCCCUGGCAAGUUACA; chemistry not given here) | 1.187 | – | inhibit cell growth and promote apoptosis | 0.9813 | – | – | – | 1.255 | – | – | significantly higher | – | –
BART14-3p: EBV BART miRNA mimic, double stranded RNA; sense SEQ NO: 83, antisense SEQ NO: 84 (sense UAAAUGCUGCAGUAGUAGGGAU; antisense AUCCCUACUACUGCAGCAUUUA; chemistry not given here) | 0.9426 | – | – | 0.8757 | – | – | – | 1.447 | – | – | – | – | –
BART16-3p: EBV BART miRNA mimic, double stranded RNA; sense SEQ NO: 23, antisense SEQ NO: 24 (sense AUCACCACCCUCUAUCCAUAU; antisense AUAUGGAUAGAGGGUGGUGAU; chemistry not given here) | 1.37 | – | inhibit cell growth and promote apoptosis | 0.9852 | – | – | – | 1.159 | – | – | – | significantly higher | –
BART12-3p: EBV BART miRNA mimic, double stranded RNA; sense SEQ NO: 67, antisense SEQ NO: 68 (sense UCCUGUGGUGUUUGGUGUGGUU; antisense AACCACACCAAACACCACAGGA; chemistry not given here) | 1.084 | – | – | 1.317 | – | – | – | 1.102 | – | – | – | – | increased
BART14-5p: EBV BART miRNA mimic, double stranded RNA; sense SEQ NO: 81, antisense SEQ NO: 82 (sense UACCCUACGCUGCCGAUUUACA; antisense UGUAAAUCGGCAGCGUAGGGUA; chemistry not given here) | 1.054 | – | – | 0.9076 | – | – | – | 1.408 | – | – | – | – | –
